System: neutrophils (arachidonic acid uptake)
Test: 14C-arachidonic acid uptake in arachidonic acid-stimulated neutrophils
Assay type: cell-based, human
Experimental: Neutrophils (10^6 /mL) were labeled with ^14 C-arachidonic acid (0.01 μCi/sample) together with either vehicle, aspirin (10 μg/mL), indomethacin (1 μg/mL) or sodium salicylate (10 μg/mL) for 1 hour. After the incubation period, lipid body formation was elicited by arachidonic acid (15 μM). The cells were washed 3 times in Ca^++ /Mg^++ free HBSS and analysis of incorporated ^14 C-arachidonic acid in the cell pellet was performed by liquid scintillation counting.
^1 The cells were pretreated with ^14 Carachidonic acid (0.01
μCi/sample) plus vehicle, aspirin (10 μg/ml) , sodium salicylate (1
μg/ml) or indomethacin (1 μg/ml) 1 h before the incubation with
arachidonic acid (15 μM). Cells were washed 3 times before the analysi
of incorporated ^14 Carachidonic acid. Results are representative of
independent experiments.

SMILES: CC(=O)Oc1ccccc1C(=O)O [aspirin]
- inhibition of 14C-arachidonic acid uptake (arachidonic acid-stimulated cells, aspirin 10 μg/mL, sodium salicylate 10 μg/mL, indomethacin 1 μg/mL): failed to inhibit
- 14C-AA uptake (stimulus arachidonate 15 μM, drug 10 μg/ml): 6974 cpm

Reference: patent US5837548A, “Treatment of inflammation by inhibition of lipid body formation” (Beth Israel Hospital, priority 1995, dated 1998)
